Patent US8222248B2, “Organic compounds” (Novartis AG, priority 2006, dated 2012)

Target: T1, human DGAT1 (Homo sapiens, UniProt O75907)
T1 construct: made in house; host or cells: Sf9 cells (membrane preparation)
T1 sequence (O75907 1-488): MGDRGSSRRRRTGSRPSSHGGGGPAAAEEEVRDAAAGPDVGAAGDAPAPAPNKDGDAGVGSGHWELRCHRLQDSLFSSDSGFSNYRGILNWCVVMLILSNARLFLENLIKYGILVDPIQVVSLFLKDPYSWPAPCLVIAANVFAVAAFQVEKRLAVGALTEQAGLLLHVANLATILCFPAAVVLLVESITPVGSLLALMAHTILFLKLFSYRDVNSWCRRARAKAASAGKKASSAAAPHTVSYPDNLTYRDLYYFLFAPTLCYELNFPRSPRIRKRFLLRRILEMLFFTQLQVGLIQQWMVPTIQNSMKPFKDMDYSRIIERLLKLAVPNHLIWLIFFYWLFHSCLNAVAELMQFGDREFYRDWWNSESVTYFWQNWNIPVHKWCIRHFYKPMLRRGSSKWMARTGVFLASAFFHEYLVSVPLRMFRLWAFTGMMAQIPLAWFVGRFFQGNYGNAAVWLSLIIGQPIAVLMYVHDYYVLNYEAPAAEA
Assay: DGAT1 enzyme inhibition assay (membrane preparation, LC/MS/MS readout)
Assay type: biochemical
Settings: DGAT1 inhibitory activity, table at end of examples
Description: The enzyme preparation used in this assay is a membrane preparation from Sf9 cells overexpressing human (His)6DGAT1. During all steps samples were chilled to 4° C. Sf9 cells expressing human (His)6DGAT1 were thawed at RT and re-suspended at a 10:1 ratio (mL buffer/g of cells) in 50 mM HEPES, 1× Complete Protease Inhibitor, pH 7.5.
The re-suspended pellet was homogenized for 1 min using a Brinkman PT 10/35 homogenizer with a 20 mm generator. Cells were lysed using Avestin Emulsiflex (chilled to 4° C.) at 10000-15000 psi. Lysate was centrifuged at 100,000×g for 1 h at 4° C. Supernatant was removed and pellets were re-suspended in 50 mM HEPES, 1× Complete Protease Inhibitor, pH 7.5 at ⅙ the volume of supernatant. Re-suspended pellets were pooled and homogenized with 10 strokes of a Glas-Col motor driven teflon pestle on setting 70. The protein concentration of the membrane preparation was quantified using BCA protein assay with 1% SDS. The membrane preparation was aliquoted, frozen on dry ice, and stored at −80° C.
For 50 mL, 25 mL of 0.2 M HEPES stock buffer, 0.5 mL of 1 M MgCl2 ([…]), and 24.5 mL of milli-Q H2O are added to the 55 mL Wheaton Potter-Elvehjem homogenizer. Enzyme preparation (0.1 mL) is added to buffer and the mixture is homogenized with 5 strokes on ice using the Glas-Col variable speed homogenizer system on setting 70.
For 50 mL, 0.5 mL 10 mM diolein is added to 9.5 mL of EtOH in a 50 mL Falcon screw cap conical centrifuge tube. Five mL of 10 mM sodium acetate pH 4.5 is added followed by 0.5 mL of 10 mM oleoyl-CoA. Finally, the remaining 4.5 mL of 10 mM sodium acetate pH 4.5 is added followed by 30 mL of milli-Q H20. The solution should be gently agitated by hand to induce mixing. The final concentrations of EtOH and sodium acetate are 20% and 2 mM, respectively.
Dry compounds are dissolved in the appropriate volume of DMSO to a final concentration of 10 mM. A 10-point, 3-fold dose response is used to evaluate compound potency. All dilutions are performed in DMSO in a Greiner 384-well microplate.
1. 2 μL of compound in DMSO is added to the appropriate wells. 2 μL of DMSO is added to 100% activity and 100% inhibition controls.
2. 25 μL of enzyme mix is added to all wells and plate(s) are incubated for 10 min at RT.
3. 10 μL of 20% acetic acid quench is added to 100% inhibition control wells. Plate(s) are vortexed using Troemner multi-tube vortexer (setting 7 for 10 sec).
4. 25 μL of substrate mix is added to all wells. Plate(s) are vortexed using Troemner multi-tube vortexer (setting 7 for 10 sec). Plate(s) are incubated for 30 min at RT.
5. 10 μL of 20% acetic acid quench is added to all wells. Plate(s) are vortexed using Troemner multi-tube vortexer (setting 7 for 10 sec).
6. 50 μL of 1-butanol w/glyceryl tripalmitoleate internal standard is added to all wells.
7. Plate(s) are sealed with super pierce strong plate sealer using the thermo-sealer.
8. Plate(s) are vortexed using Troemner multi-tube vortexer (setting 10 for 5 min).
9. Plate(s) are centrifuged at 162×g (1000 rpm for GH-3.8 rotor) for 5 min using Beckman GS-6R tabletop centrifuge.
Samples were analyzed by LC/MS/MS using a Waters 1525 μLC and Quattro Micro API MS. Where indicated, tripalmitolein was used as an internal standard to control for instrument variation.
Data is converted to % inhibition prior to curve fitting using the following equation: […]

| IC50 | SMILES |
| --- | --- |
| 6.9 µM | Cc1cccc(C(=O)Nc2ccc3nc(-c4c(Cl)cccc4Cl)[nH]c3c2)c1 [Example 1-11, N-[2-(2,6-Dichloro-phenyl)-3H-benzoimidazol-5-yl]-3-methyl-benzamide] |
| 0.23 µM | O=C(Nc1cccc(Cl)c1)c1ccc2nc(-c3cccc(Cl)c3Cl)[nH]c2c1 [Example 1-124, 2-(2,3-Dichloro-phenyl)-3H-benzoimidazole-5-carboxylic acid (3-chloro-phenyl)-amide] |
| 12 µM | COC(=O)c1ccc(-c2nc3ccc(C(=O)Nc4cccc(Cl)c4)cc3[nH]2)cc1 [Example 1-136, 4-[6-(3-Chloro-phenylcarbamoyl)-1H-benzoimidazol-2-yl]-benzoic acid methyl ester] |
| 6.8 µM | Cc1ccccc1CNC(=O)c1ccc2nc(-c3c(Cl)cccc3Cl)oc2c1 [Example 4-15, 2-(2,6-Dichloro-phenyl)-benzooxazole-6-carboxylic acid 2-methyl-benzylamide] |

Same assay, conditions: inhibitory activity to human DGAT1, Table 1, values given as ranges

| IC50 | SMILES |
| --- | --- |
| 1 to 30 µM | CC(=O)Nc1ccc2nc(-c3c(Cl)cccc3Cl)[nH]c2c1 [Example 1-6] |
| < 1 µM | CCOc1cccc(CCNC(=O)c2ccc3nc(-c4c(Cl)cccc4Cl)[nH]c3c2)c1 [Example 1-82, 2-(2,6-Dichloro-phenyl)-3H-benzoimidazole-5-carboxylic acid [2-(3-ethoxy-phenyl)-ethyl]-amide] |
| 1 to 30 µM | Cc1nc2cc(NC(=O)c3ccc4[nH]c(-c5c(Cl)cccc5Cl)cc4c3)ccc2s1 [Example 3-1, 2-(2,6-dichloro-phenyl)-1H-indole-5-carboxylic acid (2-methyl-benzothiazol-5-yl)-amide] |
| 30 to 100 µM | COc1ccccc1CCNC(=O)c1ccc2nc(-c3c(Cl)cccc3Cl)oc2c1 [Example 4-11, 2-(2,6-Dichloro-phenyl)-benzooxazole-6-carboxylic acid [2-(2-methoxy-phenyl)-ethyl]-amide] |

Tested on: not given
Assay: not given
Settings: not given

| melting point | SMILES |
| --- | --- |
| 207 to 209 °C | Cc1ccc(NC(=O)c2ccc3oc(-c4c(C)cc(OCC(=O)N(C)C)cc4C)nc3c2)cc1C [Example 4-23, 2-(4-Dimethylcarbamoylmethoxy-2,6-dimethylphenyl)-benzooxazole-5-carboxylic acid (3,4-dimethylphenyl)-amide] |
| 223 to 225 °C | Cc1ccc(NC(=O)c2ccc3c(c2)C(=O)N(c2c(C)cccc2C)C3=O)cc1C [Example 7-1, 2-(2,6-Dimethylphenyl)-1,3-dioxo-2,3-dihydro-1H-isoindole-5-carboxylic acid (3,4-dimethylphenyl)-amide] |
| 238 to 240 °C | Cc1ccc(NC(=O)c2ccc3c(c2)C(=O)N(c2c(Cl)cccc2Cl)C3=O)cc1C [Example 7-2, 2-(2,6-Dichlorophenyl)-1,3-dioxo-2,3-dihydro-1H-isoindole-5-carboxylic acid (3,4-dimethylphenyl)-amide] |
